Patent US20230027985A1, “SUBSTITUTED HYDANTOINAMIDES AS ADAMTS7 ANTAGONISTS” (Bayer Aktiengesellschaft, priority 2019, published 2023)

Key:
[1] = target: T1, Purified recombinant ADAMTS-7 (rat prodomain/human catalytic domain, SEQ ID No. 01 or 02) (Homo sapiens, UniProt Q9UKP4); assay: Assay for ADAMTS-7 enzymatic activity (FRET substrate cleavage); type: biochemical; conditions: FRET substrate SEQ ID No. 11, 120 min at 32° C.; read-out: ADAMTS7-IC50
T1 construct: rat ADAMTS-7 signal peptide + prodomain (rat 1-217, Q1EHB3) (N); 2xStrep tag (C); 6xHis tag (C); made in house; host or cells: Expi293 cells
T1 sequence (Q9UKP4 237-537): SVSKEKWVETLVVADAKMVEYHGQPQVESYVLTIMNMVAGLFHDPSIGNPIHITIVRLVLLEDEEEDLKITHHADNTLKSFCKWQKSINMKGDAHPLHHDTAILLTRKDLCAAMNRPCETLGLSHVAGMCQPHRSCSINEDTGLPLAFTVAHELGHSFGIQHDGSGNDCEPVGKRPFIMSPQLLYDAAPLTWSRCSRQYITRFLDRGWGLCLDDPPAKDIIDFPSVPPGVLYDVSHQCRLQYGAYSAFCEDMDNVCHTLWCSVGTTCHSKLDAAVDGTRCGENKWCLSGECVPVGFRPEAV
In short: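 IC50 values were fitted from percent inhibition across test-compound concentrations. Fluorescence gain (ex 485, em 520 nm) reports cleavage of a thrombospondin-1 (275-289) FRET peptide with QXL520 quencher, after 120 min at 32 °C. The enzyme, about 20 nM, was in HEPES pH 8.0 buffer with NaCl, CaCl2, ZnCl2 and Brij.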

ADAMTS4 = target: T2, ADAMTS4 (Homo sapiens, UniProt O75173); assay: Selectivity assay for ADAMTS-7 modulators (FRET), ADAMTS4; type: biochemical; conditions: 50 nM enzyme (R&D 4307-AD), 1 μM Dabcyl/Edans FRET substrate, 120 min at 32° C.
T2 construct: purchased R&D 4307-AD
T2 sequence (O75173 213-685 limits assumed): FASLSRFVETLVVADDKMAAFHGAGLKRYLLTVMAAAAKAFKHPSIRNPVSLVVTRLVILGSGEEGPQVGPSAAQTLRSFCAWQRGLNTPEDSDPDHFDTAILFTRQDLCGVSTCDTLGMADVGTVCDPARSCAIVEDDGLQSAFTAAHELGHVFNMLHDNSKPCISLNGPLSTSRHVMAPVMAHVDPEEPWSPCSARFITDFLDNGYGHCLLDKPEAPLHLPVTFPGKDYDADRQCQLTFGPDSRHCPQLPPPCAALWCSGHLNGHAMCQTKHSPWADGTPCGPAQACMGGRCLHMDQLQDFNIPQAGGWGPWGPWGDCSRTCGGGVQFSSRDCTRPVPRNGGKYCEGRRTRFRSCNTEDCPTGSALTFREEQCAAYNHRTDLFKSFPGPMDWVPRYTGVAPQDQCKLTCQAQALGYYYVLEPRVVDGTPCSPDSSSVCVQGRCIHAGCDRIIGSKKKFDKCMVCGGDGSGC
In short: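 Enzyme in 50 mM Tris pH 7.5, 150 mM NaCl, 10 mM CaCl2, 0.05% Brij, preincubated with compound in DMSO; reaction started with FRET substrate. Fluorescence increase read after 120 min at 32° C; IC50 from percent inhibition versus compound concentration.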

Row | Molecule | IC50 [1] | IC50 (ADAMTS4)
1 | O=C1NC(=O)C(CNC(=O)c2cnn(-c3ccc(F)cc3F)n2)(C2CCC2)N1 (stereo not drawn) [Example 86, ent-N-{[4-cyclobutyl-2,5-dioxoimidazolidin-4-yl]methyl}-2-(2,4-difluorophenyl)-2H-1,2,3-triazole-4-carboxamide] | 63 nM | 8500 nM
2 | O=C1NC(=O)C(CNC(=O)c2cnn(-c3cc(F)c(F)c(F)c3)n2)(C2CCC2)N1 (stereo not drawn) [Example 90, ent-N-[(4-cyclobutyl-2,5-dioxoimidazolidin-4-yl)methyl]-2-(3,4,5-trifluorophenyl)-2H-1,2,3-triazole-4-carboxamide] | 16 nM | 3100 nM
3 | O=C1NC(=O)C(CNC(=O)c2cnn(-c3cccc(F)c3)n2)(C2CCC2)N1 (stereo not drawn) [Example 93, ent-N-[(4-cyclobutyl-2,5-dioxoimidazolidin-4-yl)methyl]-2-(3-fluorophenyl)-2H-1,2,3-triazole-4-carboxamide] | 8 nM | 2200 nM
4 | O=C1NC(=O)C(CNC(=O)c2cnn(-c3ccc(F)c(F)c3)n2)(C2CCC2)N1 (stereo not drawn) [Example 94, ent-N-[(4-cyclobutyl-2,5-dioxoimidazolidin-4-yl)methyl]-2-(3,4-difluorophenyl)-2H-1,2,3-triazole-4-carboxamide] | 6 nM | 890 nM
5 | O=C1NC(=O)[C@](CNC(=O)c2cnn(-c3cc(F)c(F)c(F)c3)n2)(C2CC2)N1 [Example 98, N-{[(4R)-4-cyclopropyl-2,5-dioxoimidazolidin-4-yl]methyl}-2-(3,4,5-trifluorophenyl)-2H-1,2,3-triazole-4-carboxamide] | 25 nM | 1100 nM
6 | O=C1NC(=O)[C@](CNC(=O)c2cnn(-c3ncccc3F)n2)(C2CC2)N1 [Example 101, N-{[(4R)-4-cyclopropyl-2,5-dioxoimidazolidin-4-yl]methyl}-2-(3-fluoropyridin-2-yl)-2H-1,2,3-triazole-4-carboxamide] | 7 nM | 14000 nM
7 | CCC(C)C1(CNC(=O)c2cnn(-c3ccc(F)cc3)n2)NC(=O)NC1=O (stereo not drawn) [Example 102, diamix-N-[(4-sec-butyl-2,5-dioxoimidazolidin-4-yl)methyl]-2-(4-fluorophenyl)-2H-1,2,3-triazole-4-carboxamide] | 62 nM | 2900 nM
8 | O=C1NC(=O)[C@](CNC(=O)c2cnn(-c3nc4ccccc4s3)n2)(C2CC2)N1 [Example 105, 2-(1,3-benzothiazol-2-yl)-N-{[(4R)-4-cyclopropyl-2,5-dioxoimidazolidin-4-yl]methyl}-2H-1,2,3-triazole-4-carboxamide] | 190 nM | 11000 nM
9 | O=C1NC(=O)[C@](CNC(=O)c2cnn(-c3ccc(OC(F)(F)F)cc3)n2)(C2CC2)N1 [Example 106, N-{[(4R)-4-cyclopropyl-2,5-dioxoimidazolidin-4-yl]methyl}-2-[4-(trifluoromethoxy)phenyl]-2H-1,2,3-triazole-4-carboxamide] | 190 nM | > 50000 nM
10 | O=C1NC(=O)C(CNC(=O)c2cnn(-c3ccc(F)cc3)n2)(c2nccs2)N1 (stereo not drawn) [Example 114, ent-N-{[2,5-dioxo-4-(1,3-thiazol-2-yl)imidazolidin-4-yl]methyl}-2-(4-fluorophenyl)-2H-1,2,3-triazole-4-carboxamide] | 15 nM | 1400 nM
11 | CC(C)C1(CNC(=O)c2cnn(-c3cc(F)c(F)c(F)c3)n2)NC(=O)NC1=O (stereo not drawn) [Example 117, ent-N-[(4-isopropyl-2,5-dioxoimidazolidin-4-yl)methyl]-2-(3,4,5-trifluorophenyl)-2H-1,2,3-triazole-4-carboxamide] | 20 nM | 3300 nM
12 | O=C1NC(=O)[C@](CNC(=O)c2cnn(-c3cnsc3)n2)(C2CC2)N1 [Example 132, N-{[(4R)-4-cyclopropyl-2,5-dioxoimidazolidin-4-yl]methyl}-2-(1,2-thiazol-4-yl)-2H-1,2,3-triazole-4-carboxamide] | 230 nM | 7400 nM
13 | O=C1NC(=O)[C@](CNC(=O)c2cnn(-c3ncc(F)cc3F)n2)(C2CC2)N1 [Example 134, N-{[(4R)-4-cyclopropyl-2,5-dioxoimidazolidin-4-yl]methyl}-2-(3,5-difluoropyridin-2-yl)-2H-1,2,3-triazole-4-carboxamide] | 190 nM | 6200 nM
14 | O=C1NC(=O)C(CNC(=O)c2cnn(-c3ccc(F)cc3)n2)(c2ncsc2C(F)(F)F)N1 (stereo not drawn) [Example 136, ent-N-({2,5-dioxo-4-[5-(trifluoromethyl)-1,3-thiazol-4-yl]imidazolidin-4-yl}methyl)-2-(4-fluorophenyl)-2H-1,2,3-triazole-4-carboxamide] | 27 nM | 3500 nM
15 | Cn1ccnc1C1(CNC(=O)c2cnn(-c3ccccc3)n2)NC(=O)NC1=O (stereo not drawn) [Example 142, ent-N-{[4-(1-methyl-1H-imidazol-2-yl)-2,5-dioxoimidazolidin-4-yl]methyl}-2-phenyl-2H-1,2,3-triazole-4-carboxamide] | 4 nM | 320 nM
16 | Cn1ccnc1C1(CNC(=O)c2cnn(-c3cc(F)c(F)c(F)c3)n2)NC(=O)NC1=O (stereo not drawn) [Example 146, ent-N-{[4-(1-methyl-1H-imidazol-2-yl)-2,5-dioxoimidazolidin-4-yl]methyl}-2-(3,4,5-trifluorophenyl)-2H-1,2,3-triazole-4-carboxamide] | 3 nM | 108 nM
17 | O=C1NC(=O)C(CNC(=O)c2cnn(-c3ccc(F)cc3)n2)(c2cscn2)N1 (stereo not drawn) [Example 148, ent-N-{[2,5-dioxo-4-(1,3-thiazol-4-yl)imidazolidin-4-yl]methyl}-2-(4-fluorophenyl)-2H-1,2,3-triazole-4-carboxamide] | 12 nM | 2500 nM
18 | O=C1NC(=O)[C@](CNC(=O)c2cnn(-c3ccc(F)cc3Cl)n2)(C2CC2)N1 [Example 151, 2-(2-chloro-4-fluorophenyl)-N-{[(4R)-4-cyclopropyl-2,5-dioxoimidazolidin-4-yl]methyl}-2H-1,2,3-triazole-4-carboxamide] | 320 nM | 17000 nM
19 | O=C1NC(=O)[C@](CNC(=O)c2cnn(-c3ccc(Cl)cc3F)n2)(C2CC2)N1 [Example 160, 2-(4-chloro-2-fluorophenyl)-N-{[(4R)-4-cyclopropyl-2,5-dioxoimidazolidin-4-yl]methyl}-2H-1,2,3-triazole-4-carboxamide] | 60 nM | 1000 nM
20 | O=C1NC(=O)[C@](CNC(=O)c2cnn(-c3ccc(Cl)cc3Cl)n2)(C2CC2)N1 [Example 161, N-{[(4R)-4-cyclopropyl-2,5-dioxoimidazolidin-4-yl]methyl}-2-(2,4-dichlorophenyl)-2H-1,2,3-triazole-4-carboxamide] | 130 nM | 7100 nM
21 | ent-N-({4-[1-(difluoromethyl)-1H-pyrazol-5-yl]-2,5-dioxoimidazolidin-4-yl}methyl)-2-(4-fluorophenyl)-2H-1,2,3-triazole-4-carboxamide [Example 129] | 18 nM | 1700 nM
